Source: ChEMBL document CHEMBL2440076, “New triarylpyrazoles as broad-spectrum anticancer agents: design, synthesis, and biological evaluation” (Eur J Med Chem, 2013)

How the values were obtained:
Format in all cases: functional
[1] = Growth inhibition of human HCC2998 cells assessed as cell growth at 5X10'-8 M after 48 hrs by sulforhodamine B assay; conditions: HCC 2998, 48 h, read-out: Activity
[2] = test system: OVCAR-5; experiment: Growth inhibition of human OVCAR5 cells assessed as cell growth at 5X10'-5 M after 48 hrs by sulforhodamine B assay; conditions: OVCAR-5, 48 h, read-out: Activity
[3] = test system: CAKI-1; experiment: Growth inhibition of human CAKI-1 cells assessed as cell growth at 5X10'-8 M after 48 hrs by sulforhodamine B assay; conditions: CAKI-1, 48 h, read-out: Activity
[4] = Growth inhibition of human HCC2998 cells assessed as cell growth at 5X10'-9 M after 48 hrs by sulforhodamine B assay; conditions: HCC 2998, 48 h, read-out: Activity
[5] = test system: UACC-257; experiment: Growth inhibition of human UACC257 cells assessed as cell growth at 5X10'-5 M after 48 hrs by sulforhodamine B assay; conditions: UACC-257, 48 h, read-out: Activity
[6] = test system: SK-MEL-5; experiment: Growth inhibition of human SK-MEL-5 cells assessed as cell growth at 5X10'-8 M after 48 hrs by sulforhodamine B assay; conditions: SK-MEL-5, 48 h, read-out: Activity
[7] = test system: SNB-75; experiment: Growth inhibition of human SNB75 cells assessed as cell growth at 5X10'-8 M after 48 hrs by sulforhodamine B assay; conditions: SNB-75, 48 h, read-out: Activity
[8] = test system: SNB-75; experiment: Growth inhibition of human SNB75 cells assessed as cell growth at 5X10'-9 M after 48 hrs by sulforhodamine B assay; conditions: SNB-75, 48 h, read-out: Activity
[9] = test system: 786-0; experiment: Growth inhibition of human 786-0 cells assessed as cell growth at 5X10'-9 M after 48 hrs by sulforhodamine B assay; conditions: 786-0, 48 h, read-out: Activity
[10] = test system: HOP-62; experiment: Growth inhibition of human HOP62 cells assessed as cell growth at 5X10'-9 M after 48 hrs by sulforhodamine B assay; conditions: HOP-62, 48 h, read-out: Activity
[11] = test system: A549; experiment: Growth inhibition of human A549/ATCC cells assessed as cell growth at 5X10'-8 M after 48 hrs by sulforhodamine B assay; conditions: A549, 48 h, read-out: Activity
[12] = test system: UO-31; experiment: Growth inhibition of human UO31 cells assessed as cell growth at 5X10'-5 M after 48 hrs by sulforhodamine B assay; conditions: UO-31, 48 h, read-out: Activity
[13] = test system: SK-OV-3; experiment: Growth inhibition of human SKOV3 cells assessed as cell growth at 5X10'-7 M after 48 hrs by sulforhodamine B assay; conditions: SK-OV-3, 48 h, read-out: Activity
[14] = Growth inhibition of human HCC2998 cells assessed as cell growth at 5X10'-7 M after 48 hrs by sulforhodamine B assay; conditions: HCC 2998, 48 h, read-out: Activity
[15] = test system: SK-OV-3; experiment: Growth inhibition of human SKOV3 cells assessed as cell growth at 5X10'-8 M after 48 hrs by sulforhodamine B assay; conditions: SK-OV-3, 48 h, read-out: Activity
[16] = test system: HOP-92; experiment: Growth inhibition of human HOP92 cells assessed as cell growth at 5X10'-7 M after 48 hrs by sulforhodamine B assay; conditions: HOP-92, 48 h, read-out: Activity
[17] = test system: SR; experiment: Growth inhibition of human SR cells assessed as cell growth at 5X10'-6 M after 48 hrs by sulforhodamine B assay; conditions: read-out: Activity
[18] = test system: SK-MEL-28; experiment: Growth inhibition of human SK-MEL-28 cells assessed as cell growth at 5X10'-5 M after 48 hrs by sulforhodamine B assay; conditions: SK-MEL-28, 48 h, read-out: Activity
[19] = test system: RXF 393; experiment: Growth inhibition of human RXF393 cells assessed as cell growth at 5X10'-6 M after 48 hrs by sulforhodamine B assay; conditions: RXF 393, 48 h, read-out: Activity
[20] = test system: COLO 205; experiment: Growth inhibition of human COLO205 cells assessed as cell growth at 5X10'-7 M after 48 hrs by sulforhodamine B assay; conditions: COLO 205, 48 h, read-out: Activity
[21] = test system: SF-268; experiment: Growth inhibition of human SF268 cells assessed as cell growth at 5X10'-8 M after 48 hrs by sulforhodamine B assay; conditions: SF-268, 48 h, read-out: Activity
[22] = test system: KM12; experiment: Growth inhibition of human KM12 cells assessed as cell growth at 5X10'-9 M after 48 hrs by sulforhodamine B assay; conditions: KM12, 48 h, read-out: Activity
[23] = test system: NCI-H460; experiment: Growth inhibition of human NCI-H460 cells assessed as cell growth at 5X10'-5 M after 48 hrs by sulforhodamine B assay; conditions: NCI-H460, 48 h, read-out: Activity
[24] = test system: DU-145; experiment: Growth inhibition of human DU145 cells assessed as cell growth at 5X10'-9 M after 48 hrs by sulforhodamine B assay; conditions: DU-145, 48 h, read-out: Activity
[25] = test system: SK-MEL-5; experiment: Growth inhibition of human SK-MEL-5 cells assessed as cell growth at 5X10'-5 M after 48 hrs by sulforhodamine B assay; conditions: SK-MEL-5, 48 h, read-out: Activity
[26] = test system: RPMI-8226; experiment: Growth inhibition of human RPMI8226 cells assessed as cell growth at 5X10'-8 M after 48 hrs by sulforhodamine B assay; conditions: RPMI-8226, 48 h, read-out: Activity
[27] = test system: SN12C; experiment: Growth inhibition of human SN12C cells assessed as cell growth at 5X10'-6 M after 48 hrs by sulforhodamine B assay; conditions: read-out: Activity
[28] = test system: MDA-MB-468; experiment: Growth inhibition of human MDA-MB-468 cells assessed as cell growth at 5X10'-7 M after 48 hrs by sulforhodamine B assay; conditions: MDA-MB-468, 48 h, read-out: Activity
[29] = test system: UO-31; experiment: Growth inhibition of human UO31 cells assessed as cell growth at 5X10'-8 M after 48 hrs by sulforhodamine B assay; conditions: UO-31, 48 h, read-out: Activity
[30] = test system: NCI-H322M; experiment: Growth inhibition of human NCI-H322M cells assessed as cell growth at 5X10'-7 M after 48 hrs by sulforhodamine B assay; conditions: read-out: Activity
[31] = test system: SNB-19; experiment: Growth inhibition of human SNB19 cells assessed as cell growth at 5X10'-7 M after 48 hrs by sulforhodamine B assay; conditions: SNB-19, 48 h, read-out: Activity
[32] = test system: SF-268; experiment: Growth inhibition of human SF268 cells assessed as cell growth at 5X10'-9 M after 48 hrs by sulforhodamine B assay; conditions: SF-268, 48 h, read-out: Activity
[33] = Growth inhibition of human Hs 578T cells assessed as cell growth at 5X10'-8 M after 48 hrs by sulforhodamine B assay; conditions: read-out: Activity
[34] = test system: BT-549; experiment: Growth inhibition of human BT549 cells assessed as cell growth at 5X10'-6 M after 48 hrs by sulforhodamine B assay; conditions: BT-549, 48 h, read-out: Activity
[35] = test system: T47D; experiment: Growth inhibition of human T47D cells assessed as cell growth at 5X10'-7 M after 48 hrs by sulforhodamine B assay; conditions: read-out: Activity
[36] = test system: SNB-19; experiment: Growth inhibition of human SNB19 cells assessed as cell growth at 5X10'-8 M after 48 hrs by sulforhodamine B assay; conditions: SNB-19, 48 h, read-out: Activity
[37] = test system: 786-0; experiment: Growth inhibition of human 786-0 cells assessed as cell growth at 5X10'-6 M after 48 hrs by sulforhodamine B assay; conditions: 786-0, 48 h, read-out: Activity

SMILES	growth at 0.05 µM [1] [%]	growth at 50 µM [2] [%]	growth at 0.05 µM [3] [%]	growth at 0.005 µM [4] [%]	growth at 50 µM [5] [%]	growth at 0.05 µM [6] [%]	growth at 0.05 µM [7] [%]	growth at 0.005 µM [8] [%]	growth at 0.005 µM [9] [%]	growth at 0.005 µM [10] [%]	growth at 0.05 µM [11] [%]	growth at 50 µM [12] [%]	growth at 0.5 µM [13] [%]	growth at 0.5 µM [14] [%]	growth at 0.05 µM [15] [%]	growth at 0.5 µM [16] [%]	growth at 5 µM [17] [%]	growth at 50 µM [18] [%]	growth at 5 µM [19] [%]	growth at 0.5 µM [20] [%]	other results
O=C(Nc1cccc(-n2cc(-c3ccncc3)c(-c3ccc(Cl)c(O)c3)n2)c1)Nc1cc(C(F)(F)F)cc(C(F)(F)F)c1	105	-89	92	99	-82	92	86	88	100	95	94	-86	98	92	102	45	-11	-95	-36	93	growth at 0.05 µM [21]: 103%; growth at 0.005 µM [22]: 105%; growth at 50 µM [23]: -78%; growth at 0.005 µM [24]: 106%; growth at 50 µM [25]: -94%; growth at 0.05 µM [26]: 95%; growth at 5 µM [27]: 2%; growth at 0.5 µM [28]: 37%; growth at 0.05 µM [29]: 89%; growth at 0.5 µM [30]: 84%; growth at 0.5 µM [31]: 64%; growth at 0.005 µM [32]: 98%; growth at 0.05 µM [33]: 94%; growth at 5 µM [34]: -65%; growth at 0.5 µM [35]: 88%; growth at 0.05 µM [36]: 99%; growth at 5 µM [37]: -23%
COc1cc(-c2nn(-c3cccc(NC(=O)Nc4ccc(Cl)c(Cl)c4)c3)cc2-c2ccncc2)ccc1Cl	100	15	93	101	-30	92	83	86	100	93	92	-11	105	97	106	35	-26	-6	-34	102	growth at 0.05 µM [21]: 102%; growth at 0.005 µM [22]: 103%; growth at 50 µM [23]: 2%; growth at 0.005 µM [24]: 103%; growth at 50 µM [25]: -90%; growth at 0.05 µM [26]: 92%; growth at 5 µM [27]: 14%; growth at 0.5 µM [28]: 55%; growth at 0.05 µM [29]: 88%; growth at 0.5 µM [30]: 89%; growth at 0.5 µM [31]: 84%; growth at 0.005 µM [32]: 100%; growth at 0.05 µM [33]: 94%; growth at 5 µM [34]: 8%; growth at 0.5 µM [35]: 84%; growth at 0.05 µM [36]: 95%; growth at 5 µM [37]: -5%
